Laboratory results reported in US11180474B2 (BRISTOL-MYERS SQUIBB COMPANY, priority 2016, dated 2021).

Biological target: T1, human TLR9 (Homo sapiens, UniProt Q9NR96)
T1 construct: host or cells: HEK-Blue cells
T1 sequence (Q9NR96 26-1032): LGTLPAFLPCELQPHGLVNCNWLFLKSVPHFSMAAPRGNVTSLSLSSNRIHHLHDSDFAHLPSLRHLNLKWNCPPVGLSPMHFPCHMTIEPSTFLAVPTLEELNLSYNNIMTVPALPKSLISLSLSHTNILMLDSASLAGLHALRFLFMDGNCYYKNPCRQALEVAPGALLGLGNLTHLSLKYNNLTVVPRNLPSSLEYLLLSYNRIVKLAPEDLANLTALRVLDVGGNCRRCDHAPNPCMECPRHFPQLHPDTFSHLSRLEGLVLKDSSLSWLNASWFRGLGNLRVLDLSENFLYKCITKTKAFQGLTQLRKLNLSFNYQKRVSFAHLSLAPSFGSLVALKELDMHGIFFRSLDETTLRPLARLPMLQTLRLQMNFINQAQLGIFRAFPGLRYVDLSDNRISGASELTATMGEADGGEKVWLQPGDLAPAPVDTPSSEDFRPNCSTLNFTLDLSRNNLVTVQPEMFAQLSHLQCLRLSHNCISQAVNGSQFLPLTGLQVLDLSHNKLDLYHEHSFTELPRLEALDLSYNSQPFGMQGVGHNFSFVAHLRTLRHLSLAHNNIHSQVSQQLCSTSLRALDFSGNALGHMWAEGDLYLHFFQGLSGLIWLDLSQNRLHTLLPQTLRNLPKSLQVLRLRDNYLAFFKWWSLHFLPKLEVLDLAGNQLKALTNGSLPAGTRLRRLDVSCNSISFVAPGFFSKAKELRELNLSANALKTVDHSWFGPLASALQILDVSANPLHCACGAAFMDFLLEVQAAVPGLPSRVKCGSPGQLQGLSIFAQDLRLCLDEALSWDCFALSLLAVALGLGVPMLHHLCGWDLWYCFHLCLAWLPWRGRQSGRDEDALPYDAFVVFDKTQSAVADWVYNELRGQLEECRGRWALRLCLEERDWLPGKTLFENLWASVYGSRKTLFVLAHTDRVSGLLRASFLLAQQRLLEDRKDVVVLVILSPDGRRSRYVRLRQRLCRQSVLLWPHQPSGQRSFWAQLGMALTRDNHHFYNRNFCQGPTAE
Experiment: TLR9 inhibition reporter assay (HEK-Blue cells, SEAP reporter, ODN2006 stimulation)
Type: cell-based
Settings: HEK-Blue cells overexpressing human TLR9, ODN2006 5 nM
Method in brief: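 HEK-Blue cells overexpressing human TLR7, TLR8 or TLR9 carry a SEAP reporter driven by NF-κB/AP-1 sites. Compounds (0.05 nM–50 μM) were preincubated 30 min at room temperature, then cells were stimulated with gardiquimod 7.5 μM (TLR7), R848 15.9 μM (TLR8) or ODN2006 5 nM (TLR9) for 22 h at 37 °C.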

SMILES | IC50
COc1ccc(-c2[nH]c3ccc(C4CCNCC4O)cc3c2C(C)C)cc1OC (single isomer, unassigned) [Example 317, 4-(2-(3,4-dimethoxyphenyl)-3-isopropyl-1H-indol-5-yl)piperidin-3-ol 2,2,2-trifluoroacetate] | 4.72 µM
COc1ccc(-c2[nH]c3ccc(C4CCNCC4O)cc3c2C(C)C)cc1OC (single isomer, unassigned) [Example 318, 4-(2-(3,4-dimethoxyphenyl)-3-isopropyl-1H-indol-5-yl)piperidin-3-ol 2,2,2-trifluoroacetate] | 11.2 µM
COc1ccc(-c2[nH]c3ccc(C4CCN(C(=O)CN5CCCN(C(C)=O)CC5)CC4)cc3c2C(C)C)cc1OC [Example 222, 2-(4-acetyl-1,4-diazepan-1-yl)-1-(4-(2-(3,4-dimethoxyphenyl)-3-isopropyl-1H-indol-5-yl)piperidin-1-yl)ethan-1-one] | 6.88 µM
COc1ccc(-c2[nH]c3ccc(C4CCN(C(=O)CN5CCOCC5)CC4)cc3c2C(C)C)cc1OC [Example 223, 1-(4-(2-(3,4-dimethoxyphenyl)-3-isopropyl-1H-indol-5-yl)piperidin-1-yl)-2-morpholinoethan-1-one] | ≥ 50 µM
COc1ccc(-c2[nH]c3ccc(C4CCN(C(=O)CN5CCCC(CO)C5)CC4)cc3c2C(C)C)cc1OC (stereo not shown) [Example 226, 1-(4-(2-(3,4-dimethoxyphenyl)-3-isopropyl-1H-indol-5-yl)piperidin-1-yl)-2-(3-(hydroxymethyl)piperidin-1-yl)ethan-1-one] | 1.42 µM
COc1ccc(-c2[nH]c3ccc(C4CCN(C(=O)CN(C)C(C)C)CC4)cc3c2C(C)C)cc1OC [Example 227, 1-(4-(2-(3,4-dimethoxyphenyl)-3-isopropyl-1H-indol-5-yl)piperidin-1-yl)-2-(isopropyl(methyl)amino) ethan-1-one] | 1.73 µM
COc1ccc(-c2[nH]c3ccc(C4CCN(C(=O)CNCC(N)=O)CC4)cc3c2C(C)C)cc1OC [Example 228, 2-((2-(4-(2-(3,4-dimethoxyphenyl)-3-isopropyl-1H-indol-5-yl)piperidin-1-yl)-2-oxoethyl)amino)acetamide] | 15.1 µM
COc1ccc(-c2[nH]c3ccc(C4CCN(C(=O)CN5CCN(CC(=O)NC(C)C)CC5)CC4)cc3c2C(C)C)cc1OC [Example 229, 2-(4-(2-(4-(2-(3,4-dimethoxyphenyl)-3-isopropyl-1H-indol-5-yl)piperidin-1-yl)-2-oxoethyl)piperazin-1-yl)-N-isopropylacetamide] | 4.98 µM
COc1ccc(-c2[nH]c3ccc(C4CCN(C(=O)CNCCOCCO)CC4)cc3c2C(C)C)cc1OC [Example 230, 1-(4-(2-(3,4-dimethoxyphenyl)-3-isopropyl-1H-indol-5-yl)piperidin-1-yl)-2-((2-(2-hydroxyethoxy)ethyl)amino)ethan-1-one] | 2.2 µM
COc1ccc(-c2[nH]c3ccc(C4CCN(C(=O)CN[C@H](CO)CC(C)C)CC4)cc3c2C(C)C)cc1OC [Example 231, (S)-1-(4-(2-(3,4-dimethoxyphenyl)-3-isopropyl-1H-indol-5-yl)piperidin-1-yl)-2-((1-hydroxy-4-methylpentan-2-yl)amino)ethan-1-one] | 1.93 µM
COc1ccc(-c2[nH]c3ccc(C4CCN(C(=O)CN[C@@H](CO)CC(C)C)CC4)cc3c2C(C)C)cc1OC [Example 234, (R)-1-(4-(2-(3,4-dimethoxyphenyl)-3-isopropyl-1H-indol-5-yl)piperidin-1-yl)-2-((1-hydroxy-4-methylpentan-2-yl)amino) ethan-1-one] | 1.88 µM
COc1ccc(-c2[nH]c3ccc(C4CCN(C(=O)CNC5CCCC5O)CC4)cc3c2C(C)C)cc1OC (stereo not shown) [Example 236, 1-(4-(2-(3,4-dimethoxyphenyl)-3-isopropyl-1H-indol-5-yl)piperidin-1-yl)-2-((2-hydroxycyclopentyl)amino)ethan-1-one] | 1.38 µM
COc1ccc(-c2[nH]c3ccc(C4CCN(C(=O)CN5CCC(O)CC5)CC4)cc3c2C(C)C)cc1OC [Example 238, 1-(4-(2-(3,4-dimethoxyphenyl)-3-isopropyl-1H-indol-5-yl)piperidin-1-yl)-2-(4-hydroxypiperidin-1-yl) ethan-1-one] | 1.42 µM
COc1ccc(-c2[nH]c3ccc(C4CCN(C(=O)CN5CCN(C(C)C)CC5)CC4)cc3c2C(C)C)cc1OC [Example 240, 1-(4-(2-(3,4-dimethoxyphenyl)-3-isopropyl-1H-indol-5-yl)piperidin-1-yl)-2-(4-isopropylpiperazin-1-yl)ethan-1-one] | 1.39 µM

These reach a lower IC50. Values come first.

IC50 | SMILES
1.16 µM | COc1ccc(-c2[nH]c3ccc(C4CCN(C(=O)CNCCC(C)O)CC4)cc3c2C(C)C)cc1OC (stereo not shown) [Example 237, 1-(4-(2-(3,4-dimethoxyphenyl)-3-isopropyl-1H-indol-5-yl)piperidin-1-yl)-2-((3-hydroxybutyl)amino)ethan-1-one]
0.877 µM | CCC(CO)NCC(=O)N1CCC(c2ccc3[nH]c(-c4ccc(OC)c(OC)c4)c(C(C)C)c3c2)CC1 (stereo not shown) [Example 233, 1-(4-(2-(3,4-dimethoxyphenyl)-3-isopropyl-1H-indol-5-yl)piperidin-1-yl)-2-((1-hydroxybutan-2-yl)amino)ethan-1-one]
0.774 µM | COc1ccc(-c2[nH]c3ccc(C4CCN(C(=O)CNC[C@H](O)CO)CC4)cc3c2C(C)C)cc1OC [Example 235, (S)-2-((2,3-dihydroxypropyl)amino)-1-(4-(2-(3,4-dimethoxyphenyl)-3-isopropyl-1H-indol-5-yl)piperidin-1-yl)ethan-1-one]
0.586 µM | COc1ccc(-c2[nH]c3ccc(C4CCN(C(=O)CN5CCCC(C(=O)NC6CCN(C(C)C)CC6)C5)CC4)cc3c2C(C)C)cc1OC (single isomer, unassigned) [Example 281, 1-(2-(4-(2-(3,4-dimethoxyphenyl)-3-isopropyl-1H-indol-5-yl)piperidin-1-yl)-2-oxoethyl)-N-(1-isopropylpiperidin-4-yl)piperidine-3-carboxamide]
0.571 µM | COc1ccc(-c2[nH]c3ccc(C4CCN(C(=O)CN5CCC(N6CCN(C)CC6)CC5)CC4)cc3c2C(C)C)cc1OC [Example 241, 1-(4-(2-(3,4-dimethoxyphenyl)-3-isopropyl-1H-indol-5-yl)piperidin-1-yl)-2-(4-(4-methylpiperazin-1-yl)piperidin-1-yl)ethan-1-one]
0.516 µM | COc1ccc(-c2[nH]c3ccc(C4CCN(C(=O)CN5CCCN(C)CC5)CC4)cc3c2C(C)C)cc1OC [Example 239, 1-(4-(2-(3,4-dimethoxyphenyl)-3-isopropyl-1H-indol-5-yl)piperidin-1-yl)-2-(4-methyl-1,4-diazepan-1-yl)ethan-1-one]
0.417 µM | COc1ccc(-c2[nH]c3ccc(C4CCN(C(=O)CN5CCCC(C(=O)NC6CCN(C(C)C)CC6)C5)CC4)cc3c2C(C)C)cc1OC (single isomer, unassigned) [Example 280, 1-(2-(4-(2-(3,4-dimethoxyphenyl)-3-isopropyl-1H-indol-5-yl)piperidin-1-yl)-2-oxoethyl)-N-(1-isopropylpiperidin-4-yl)piperidine-3-carboxamide]
0.403 µM | CCN(CC)C(=O)C1CCCN(CC(=O)N2CCC(c3ccc4[nH]c(-c5ccc(OC)c(OC)c5)c(C(C)C)c4c3)CC2)C1 (stereo not shown) [Example 224, 1-(2-(4-(2-(3,4-dimethoxyphenyl)-3-isopropyl-1H-indol-5-yl)piperidin-1-yl)-2-oxoethyl)-N,N-diethylpiperidine-3-carboxamide]
0.307 µM | COc1ccc(-c2[nH]c3ccc(C4CCN(C(=O)CN[C@H]5CC[C@H](N)CC5)CC4)cc3c2C(C)C)cc1OC [Example 232, 2-(((1r,4r)-4-aminocyclohexyl)amino)-1-(4-(2-(3,4-dimethoxyphenyl)-3-isopropyl-1H-indol-5-yl)piperidin-1-yl)ethan-1-one]
0.154 µM | COc1ccc(-c2[nH]c3ccc(C4CCN(C5CCN(C6CC6)CC5)CC4)cc3c2C)cc1OC [Example 23, 5-(1′-cyclopropyl-[1,4′-bipiperidin]-4-yl)-2-(3,4-dimethoxyphenyl)-3-methyl-1H-indole]
0.083 µM | COc1ccc(-c2[nH]c3ccc(C4CCN(C5C[C@H]6CC[C@@H](C5)N6C)CC4)cc3c2C)cc1OC (stereo partly drawn) [Example 21, 2-(3,4-dimethoxyphenyl)-3-methyl-5-(1-((1R,5S)-8-methyl-8-azabicyclo[3.2.1]octan-3-yl)piperidin-4-yl)-1H-indole]
